Data: patent US20210290651A1, “METHODS OF TREATING VIRAL INFECTIONS USING INHIBITORS OF NUCLEOTIDE SYNTHESIS PATHWAYS” (priority 2020, published 2021)
Values joined by “and” are separate entries in the source; they are usually repeats but may differ in a detail not shown here. Equal entries are not always repeated. Where two headings read alike, the source gives them in different places.

Tests used:
[1] = patient with papillary carcinoma of the thyroid; cited from earlier work
[2] = daily times 5 schedule; cited from earlier work
in vitro = conditions: monkey
SARS-CoV-2 = experiment: microbe, parasite or virus in culture; format: cell-based
HRV1A strain 2060 = experiment: Rhinovirus antiviral assay, inhibition of virus-induced cell killing (XTT) in H1-HeLa cells; format: cell-based; conditions: Enterovirus
advanced lung cancer = conditions: weekly rapid iv injection, previously treated patients with advanced lung cancer; cited from earlier work
OMP decarboxylase = conditions: for PYR concentration: 1 μM; for OMP concentration / Orotate concentration / UMP concentration: PYR 1 μM
[3] = remdesivir dose response, brequinar 0.000 μM
[4] = remdesivir dose response, brequinar 0.078 μM
[5] = remdesivir dose response, brequinar 0.156 μM
[6] = remdesivir dose response, brequinar 0.313 μM
[7] = remdesivir dose response, brequinar 1.250 μM

## Cc1c(-c2ccc(-c3ccccc3F)cc2)nc2ccc(F)cc2c1C(=O)O [Brequinar sodium]
[1]
  tumor response: One mixed response
[2]
  maximum tolerated dose: 300 mg/m^2
  recommended phase II dose: 250 mg/m^2

## NC(=O)c1ncn([C@@H]2O[C@H](CO)[C@@H](O)[C@H]2O)n1 [ribavirin]
In vitro; CC50
  CC50: > 50000 nM
SARS-CoV-2; Severe acute respiratory syndrome coronavirus 2, Vero C1008, read-out: IC50: Concentration inhibiting 50% of the virus-induced CPE compared to the no infection control
  IC50: > 50000 nM
SARS-CoV-2; Severe acute respiratory syndrome coronavirus 2, Vero C1008; Vero E6, MOI of 0.05
  EC90: > 50000 nM

## CCOC(=O)/C=C/[C@H](C[C@@H]1CCNC1=O)NC(=O)[C@@H](CC(=O)[C@@H](NC(=O)c1cc(C)on1)C(C)C)Cc1ccc(F)cc1 [Rupintrivir]
HRV1A strain 2060
  EC50: 10.7 nM

## NC(=O)c1[nH]nc([C@@H]2O[C@H](CO)[C@@H](O)[C@H]2O)c1O [PYR, 5-[(2S,3R,4S,5R)-3,4-dihydroxy-5-(hydroxymethyl)oxolan-2-yl]-4-hydroxy-1H-pyrazole-3-carboxamide]
Advanced lung cancer
  therapeutic value: little therapeutic value as a single agent
OMP decarboxylase; 1 h
  PYR concentration: 0 ng/mL
OMP decarboxylase; 4 h
  PYR concentration: 0 ng/mL
OMP decarboxylase; Cells, 1 hr
  OMP concentration: 0 ng/mL
  Orotate concentration: 339 ng/mL
  UMP concentration: 552 ng/mL
OMP decarboxylase; Cells, 4 hr
  OMP concentration: 10 ng/mL
  Orotate concentration: 1170 ng/mL
  UMP concentration: 408 ng/mL
OMP decarboxylase; Cells, 24 hr
  OMP concentration: 11 ng/mL
  Orotate concentration: 1220 ng/mL
  UMP concentration: 326 ng/mL
OMP decarboxylase; Supernatant, 24 hr
  OMP concentration: 43 ng/mL
  Orotate concentration: 10005 ng/mL
  UMP concentration: 69 ng/mL

## CC(C)C[C@H](NC(=O)OCc1ccccc1)C(=O)N[C@@H](CC1CCNC1=O)C(O)S(=O)(=O)[O-].[Na+] (stereo partly drawn) [GC-376]
Vero E6 cells
  CC50: > 50000 nM
SARS-CoV-2
  E(Max): 100
  EC90: 5730 nM
SARS-CoV-2; read-out: EC50: Concentration inhibiting 50% of the maximum CPE-protection effect of the compound (Emax)
  EC50: 2040 nM
SARS-CoV-2; read-out: IC50: Concentration inhibiting 50% of the virus-induced CPE compared to the no infection control
  IC50: 2040 nM

## CCC(CC)COC(=O)[C@H](C)N[P@](=O)(OC[C@H]1O[C@@](C#N)(c2ccc3c(N)ncnn23)[C@H](O)[C@@H]1O)Oc1ccccc1 [remdesivir]
Vero E6 cells; remdesivir co-treatment with brequinar
  cytotoxicity of the co-treatment: No enhanced cytotoxicity was detected
In vitro; CC50, Vero E6
  CC50: > 50000 nM
In vitro; CC50 of remdesivir
  CC50: > 50000 nM
In vitro; CC50 of remdesivir, brequinar 0.000 μM
  CC50: > 25000 nM
In vitro; CC50 of remdesivir, brequinar 0.078 μM
  CC50: > 50000 nM
In vitro; CC50 of remdesivir, brequinar 0.156 μM
  CC50: > 50000 nM
In vitro; CC50 of remdesivir, brequinar 0.313 μM
  CC50: > 50000 nM
In vitro; CC50 of remdesivir, brequinar 1.250 μM
  CC50: > 50000 nM
SARS-CoV-2
  E(Max): 100
  E(Max) of remdesivir: 95.33 and 96.37 and 95.10
  Max Data: 104.7% and 106.8% and 101.9%
  Min Data: 75.9% and 78.9% and 69.5%
  increase in activity of remdesivir: > 6.8 fold
SARS-CoV-2; Severe acute respiratory syndrome coronavirus 2, Vero C1008
  EC90: 1400 nM
SARS-CoV-2; Severe acute respiratory syndrome coronavirus 2, Vero C1008, brequinar 0.000 μM; read-out: EC50 of remdesivir
  EC50: 801 nM
SARS-CoV-2; Severe acute respiratory syndrome coronavirus 2, Vero C1008, brequinar 0.000 μM; read-out: IC50 of remdesivir
  IC50: 823 nM
SARS-CoV-2; Severe acute respiratory syndrome coronavirus 2, Vero C1008, brequinar 0.078 μM; read-out: EC50 of remdesivir
  EC50: 277 nM
SARS-CoV-2; Severe acute respiratory syndrome coronavirus 2, Vero C1008, brequinar 0.078 μM; read-out: IC50 of remdesivir
  IC50: 292 nM
SARS-CoV-2; Severe acute respiratory syndrome coronavirus 2, Vero C1008, brequinar 0.156 μM; read-out: EC50 of remdesivir
  EC50: 186 nM
SARS-CoV-2; Severe acute respiratory syndrome coronavirus 2, Vero C1008, brequinar 0.156 μM; read-out: IC50 of remdesivir
  IC50: 102 nM
SARS-CoV-2; Severe acute respiratory syndrome coronavirus 2, Vero C1008, brequinar 0.313 μM; extrapolated value; read-out: EC50 of remdesivir
  EC50: 3 nM
SARS-CoV-2; Severe acute respiratory syndrome coronavirus 2, Vero C1008, brequinar 0.313 μM; extrapolated value; read-out: IC50 of remdesivir
  IC50: 3 nM
SARS-CoV-2; Severe acute respiratory syndrome coronavirus 2, Vero C1008, brequinar 1.250 μM; read-out: EC50 of remdesivir
  EC50: < 19.5 nM
SARS-CoV-2; Severe acute respiratory syndrome coronavirus 2, Vero C1008, brequinar 1.250 μM; read-out: IC50 of remdesivir
  IC50: < 19.5 nM
SARS-CoV-2; Severe acute respiratory syndrome coronavirus 2, Vero C1008, read-out: EC50 of remdesivir
  EC50: < 19.5 nM
SARS-CoV-2; Severe acute respiratory syndrome coronavirus 2, Vero C1008, read-out: IC50 of remdesivir
  IC50: < 19.5 nM
SARS-CoV-2; Severe acute respiratory syndrome coronavirus 2, Vero C1008, read-out: remdesivir concentration to suppress viral replication to 50%
  IC50: 100 nM
SARS-CoV-2; Severe acute respiratory syndrome coronavirus 2, Vero C1008; read-out: EC50: Concentration inhibiting 50% of the maximum CPE-protection effect of the compound (Emax)
  EC50: 820 nM
SARS-CoV-2; Severe acute respiratory syndrome coronavirus 2, Vero C1008; read-out: IC50: Concentration inhibiting 50% of the virus-induced CPE compared to the no infection control
  IC50: 820 nM
SARS-CoV-2; Vero E6
  SI50: Selective Index 50 = CC50/IC50: >61
SARS-CoV-2; brequinar 0.000 μM
  E(Max) of remdesivir: 92.02
SARS-CoV-2; brequinar 0.078 μM
  E(Max) of remdesivir: 97.37
SARS-CoV-2; brequinar 0.156 μM
  E(Max) of remdesivir: 122.66
SARS-CoV-2; brequinar 0.313 μM
  E(Max) of remdesivir: 97.35
SARS-CoV-2; brequinar 1.250 μM
  E(Max) of remdesivir: 100.22
SARS-CoV-2; [3]
  Max Data: 97.1%
  Min Data: −11%
SARS-CoV-2; [4]
  Max Data: 94.4%
  Min Data: −1.9%
SARS-CoV-2; [5]
  Max Data: 102.6%
  Min Data: 22.1%
SARS-CoV-2; [6]
  Max Data: 103.8%
  Min Data: 55.4%
SARS-CoV-2; [7]
  Max Data: 105.1%
  Min Data: 80.1%
